pIC50: −log10 of the molar value.
Tests used:
A2780/Taxol [1] = assay: Cytotoxicity against human A2780/Taxol cells assessed survival rate at 10 uM incubated for 48 hrs by MTT assay; format: functional
A2780/Taxol [2] = assay: Reversal of multi-drug resistance in human A2780/Taxol cells incubated for 48 hrs by MTT assay; format: functional, cell-based
A2780/Taxol [3] = assay: Reversal of multidrug resistance in human A2780/Taxol Cells assessed as reversal fold of paclitaxel IC50 at 10 uM incubated for 48 hrs by MTT assay; format: functional

CCOc1ccc2c(C)c(Cc3ccc(F)cc3)c(=O)oc2c1COC(=O)/C=C/c1ccc(OC)cc1
Cell survival rate (A2780/Taxol [1]): 92%
pIC50 (A2780/Taxol [2]): 6.47
fold change (FC) (A2780/Taxol [3]): 13

COc1cc(CC(=O)OCc2c(OC(C)C)ccc3c(C)c(C)c(=O)oc23)cc(OC)c1OC
Cell survival rate (A2780/Taxol [1]): 94%
pIC50 (A2780/Taxol [2]): 7.26
fold change (FC) (A2780/Taxol [3]): 80

COc1cc(CC(=O)OCc2c(OC(C)C)ccc3c(C)c(CCc4ccccc4)c(=O)oc23)cc(OC)c1OC
Cell survival rate (A2780/Taxol [1]): 93%
pIC50 (A2780/Taxol [2]): 7.06
fold change (FC) (A2780/Taxol [3]): 50

COc1cc(CC(=O)OCc2c(OC(C)C)ccc3c(C)c(-c4ccccc4)c(=O)oc23)cc(OC)c1OC
Cell survival rate (A2780/Taxol [1]): 97%
pIC50 (A2780/Taxol [2]): 7.37
fold change (FC) (A2780/Taxol [3]): 101

Cc1c(Cc2ccccc2)c(=O)oc2c(COC(=O)Cc3ccccc3)c(OC(C)C)ccc12
Cell survival rate (A2780/Taxol [1]): 83%
pIC50 (A2780/Taxol [2]): 7.12
fold change (FC) (A2780/Taxol [3]): 58

CCOc1ccc2c(=O)cc(CC)oc2c1COC(=O)/C=C/c1ccc(OC)cc1
Cell survival rate (A2780/Taxol [1]): 52%

COc1cc(C(=O)OCc2c(OC(C)C)ccc3c(C)c(Cc4ccccc4)c(=O)oc23)cc(OC)c1OC
Cell survival rate (A2780/Taxol [1]): 91%
pIC50 (A2780/Taxol [2]): 7.07
fold change (FC) (A2780/Taxol [3]): 52

COc1ccc(Cc2c(C)c3ccc(OC(C)C)c(COC(=O)/C=C/c4ccccc4)c3oc2=O)cc1
Cell survival rate (A2780/Taxol [1]): 94%
pIC50 (A2780/Taxol [2]): 5.47
fold change (FC) (A2780/Taxol [3]): 1.3

CC(=O)O[C@H]1C(=O)[C@@]2(C)[C@H]([C@H](OC(=O)c3ccccc3)[C@]3(O)C[C@H](OC(=O)[C@H](O)[C@@H](NC(=O)c4ccccc4)c4ccccc4)C(C)=C1C3(C)C)[C@]1(OC(C)=O)CO[C@@H]1C[C@@H]2O [PACLITAXEL]
pIC50 (A2780/Taxol [2]): 5.35
fold change (FC) (A2780/Taxol [3]): 1

Cc1cc(=O)oc2c(C(=O)Nc3ccccc3)c(OC(C)C)ccc12
Cell survival rate (A2780/Taxol [1]): 92%
pIC50 (A2780/Taxol [2]): 5.56
fold change (FC) (A2780/Taxol [3]): 1.6

COc1ccc(/C=C/C(=O)OCc2c(OC(C)C)ccc3c(C)c(Cc4ccc(C(F)(F)F)cc4)c(=O)oc23)cc1
Cell survival rate (A2780/Taxol [1]): 94%
pIC50 (A2780/Taxol [2]): 6.20
fold change (FC) (A2780/Taxol [3]): 7

Cc1c(Cc2ccccc2)c(=O)oc2c(COC(=O)/C=C/c3ccccc3)c(OC(C)C)ccc12
Cell survival rate (A2780/Taxol [1]): 95%
pIC50 (A2780/Taxol [2]): 6.56
fold change (FC) (A2780/Taxol [3]): 16

CCc1cc(=O)c2ccc(OC(C)C)c(CNC(=O)/C=C/c3ccccc3)c2o1
Cell survival rate (A2780/Taxol [1]): 74%
pIC50 (A2780/Taxol [2]): 6.72
fold change (FC) (A2780/Taxol [3]): 23

COc1cc(CC(=O)OCc2c(OC(C)C)ccc3c(C)c(Cc4ccc(C(F)(F)F)cc4)c(=O)oc23)cc(OC)c1OC
Cell survival rate (A2780/Taxol [1]): 81%
pIC50 (A2780/Taxol [2]): 7.03
fold change (FC) (A2780/Taxol [3]): 47

CCOc1ccc2c(C)c(Cc3ccc(OC)cc3)c(=O)oc2c1COC(=O)/C=C/c1ccc(OC)cc1
Cell survival rate (A2780/Taxol [1]): 90%
pIC50 (A2780/Taxol [2]): 6.31
fold change (FC) (A2780/Taxol [3]): 9

CCc1c(C)c2ccc(OC(C)C)c(COC(=O)Cc3cc(OC)c(OC)c(OC)c3)c2oc1=O
Cell survival rate (A2780/Taxol [1]): 93%
pIC50 (A2780/Taxol [2]): 7.16
fold change (FC) (A2780/Taxol [3]): 64

COc1cc(CCC(=O)OCc2c(OC(C)C)ccc3c(C)c(Cc4ccccc4)c(=O)oc23)cc(OC)c1OC
Cell survival rate (A2780/Taxol [1]): 90%
pIC50 (A2780/Taxol [2]): 7.28
fold change (FC) (A2780/Taxol [3]): 82

COc1ccc(/C=C/C(=O)OCc2c(OC(C)C)ccc3c(C)c(Cc4ccc(OC)cc4)c(=O)oc23)cc1
Cell survival rate (A2780/Taxol [1]): 83%
pIC50 (A2780/Taxol [2]): 6.31
fold change (FC) (A2780/Taxol [3]): 9

COc1cccc(Cc2c(C)c3ccc(OC(C)C)c(COC(=O)Cc4cc(OC)c(OC)c(OC)c4)c3oc2=O)c1
Cell survival rate (A2780/Taxol [1]): 93%
pIC50 (A2780/Taxol [2]): 7.14
fold change (FC) (A2780/Taxol [3]): 60

CCc1cc(=O)c2ccc(OC(C)C)c(CNc3cc(OC)c(OC)c(OC)c3)c2o1
Cell survival rate (A2780/Taxol [1]): 86%
pIC50 (A2780/Taxol [2]): 6.84
fold change (FC) (A2780/Taxol [3]): 31

COc1ccc(/C=C/C(=O)OCc2c(OC(C)C)ccc3c(C)c(Cc4ccc(F)cc4)c(=O)oc23)cc1
Cell survival rate (A2780/Taxol [1]): 89%
pIC50 (A2780/Taxol [2]): 6.31
fold change (FC) (A2780/Taxol [3]): 9

Cc1c(Cc2ccc(C(F)(F)F)cc2)c(=O)oc2c(COC(=O)/C=C/c3ccccc3)c(OC(C)C)ccc12
Cell survival rate (A2780/Taxol [1]): 99%
pIC50 (A2780/Taxol [2]): 6.40
fold change (FC) (A2780/Taxol [3]): 11

CCc1cc(=O)c2ccc(OC(C)C)c(CNC(=O)Cc3cc(OC)c(OC)c(OC)c3)c2o1
Cell survival rate (A2780/Taxol [1]): 97%
pIC50 (A2780/Taxol [2]): 7.70
fold change (FC) (A2780/Taxol [3]): 224

COc1ccc(Cc2c(C)c3ccc(OC(C)C)c(COC(=O)Cc4cc(OC)c(OC)c(OC)c4)c3oc2=O)cc1
Cell survival rate (A2780/Taxol [1]): 94%
pIC50 (A2780/Taxol [2]): 7.03
fold change (FC) (A2780/Taxol [3]): 47

Cc1cc(=O)oc2c(C(=O)Nc3ccc(OC(F)(F)F)cc3)c(OC(C)C)ccc12
Cell survival rate (A2780/Taxol [1]): 60%
pIC50 (A2780/Taxol [2]): 6.50
fold change (FC) (A2780/Taxol [3]): 14

COc1ccccc1Cc1c(C)c2ccc(OC(C)C)c(COC(=O)Cc3cc(OC)c(OC)c(OC)c3)c2oc1=O
Cell survival rate (A2780/Taxol [1]): 92%
pIC50 (A2780/Taxol [2]): 7.16
fold change (FC) (A2780/Taxol [3]): 64

COc1cc(CC(=O)NCc2c(OC(C)C)ccc3c(C)cc(=O)oc23)cc(OC)c1OC
Cell survival rate (A2780/Taxol [1]): 90%
pIC50 (A2780/Taxol [2]): 5.80
fold change (FC) (A2780/Taxol [3]): 2.8

CCOc1ccc2c(C)c(Cc3ccccc3)c(=O)oc2c1COC(=O)/C=C/c1ccc(OC)cc1
Cell survival rate (A2780/Taxol [1]): 74%
pIC50 (A2780/Taxol [2]): 6.56
fold change (FC) (A2780/Taxol [3]): 16

COc1cc(CC(=O)OCc2c(OC(C)C)ccc3c(C)c(Cc4ccc(C#N)cc4)c(=O)oc23)cc(OC)c1OC
Cell survival rate (A2780/Taxol [1]): 81%
pIC50 (A2780/Taxol [2]): 7.06
fold change (FC) (A2780/Taxol [3]): 50

Cc1cc(=O)oc2c(CNC(=O)/C=C/c3ccccc3)c(OC(C)C)ccc12
Cell survival rate (A2780/Taxol [1]): 87%
pIC50 (A2780/Taxol [2]): 6.53
fold change (FC) (A2780/Taxol [3]): 15

COc1cc(CC(=O)OCc2c(OC(C)C)ccc3c(C)c(Cc4cccc(F)c4)c(=O)oc23)cc(OC)c1OC
Cell survival rate (A2780/Taxol [1]): 94%
pIC50 (A2780/Taxol [2]): 7.07
fold change (FC) (A2780/Taxol [3]): 51

Cc1c(Cc2ccc(C#N)cc2)c(=O)oc2c(COC(=O)/C=C/c3ccccc3)c(OC(C)C)ccc12
Cell survival rate (A2780/Taxol [1]): 91%
pIC50 (A2780/Taxol [2]): 6.68
fold change (FC) (A2780/Taxol [3]): 21

Cc1c(Cc2ccccc2)c(=O)oc2c(COC(=O)c3ccccc3)c(OC(C)C)ccc12
Cell survival rate (A2780/Taxol [1]): 81%
pIC50 (A2780/Taxol [2]): 7.21
fold change (FC) (A2780/Taxol [3]): 71

COc1cc(CC(=O)OCc2c(OC(C)C)ccc3c(C)c(Cc4ccccc4F)c(=O)oc23)cc(OC)c1OC
Cell survival rate (A2780/Taxol [1]): 98%
pIC50 (A2780/Taxol [2]): 7.14
fold change (FC) (A2780/Taxol [3]): 60

COc1cc(CC(=O)OCc2c(OC(C)C)ccc3c(C)c(Cc4ccc(F)cc4)c(=O)oc23)cc(OC)c1OC
Cell survival rate (A2780/Taxol [1]): 92%
pIC50 (A2780/Taxol [2]): 7.68
fold change (FC) (A2780/Taxol [3]): 206

Cc1c(Cc2ccccc2)c(=O)oc2c(COC(=O)Cc3ccc(F)cc3)c(OC(C)C)ccc12
Cell survival rate (A2780/Taxol [1]): 95%
pIC50 (A2780/Taxol [2]): 7.17
fold change (FC) (A2780/Taxol [3]): 66

COc1cc(C(=O)OCc2c(OC(C)C)ccc3c(C)c(CCc4ccccc4)c(=O)oc23)cc(OC)c1OC
Cell survival rate (A2780/Taxol [1]): 91%
pIC50 (A2780/Taxol [2]): 7.51
fold change (FC) (A2780/Taxol [3]): 140

COc1cc(CC(=O)OCc2c(OC(C)C)ccc3c(C)c(C(C)C)c(=O)oc23)cc(OC)c1OC
Cell survival rate (A2780/Taxol [1]): 98%
pIC50 (A2780/Taxol [2]): 7.44
fold change (FC) (A2780/Taxol [3]): 122

COc1cc(NC(=O)c2c(OC(C)C)ccc3c(C)cc(=O)oc23)cc(OC)c1OC
Cell survival rate (A2780/Taxol [1]): 88%
pIC50 (A2780/Taxol [2]): 5.80
fold change (FC) (A2780/Taxol [3]): 2.8

COc1ccc(/C=C/C(=O)OCc2c(OC(C)C)ccc3c(C)c(Cc4ccccc4)c(=O)oc23)cc1
Cell survival rate (A2780/Taxol [1]): 86%
pIC50 (A2780/Taxol [2]): 6.63
fold change (FC) (A2780/Taxol [3]): 19
